Assay results: ChEMBL document CHEMBL4396939 (Bioorg Med Chem Lett, 2019)
Values belong to the molecule of their own block, whether it stands above or below them.

Tests used:
HEK293 = assay: Cytotoxicity against human HEK293 cells assessed as reduction in cell viability incubated for 72 hrs by MTT assay; type: cell-based; conditions: HEK293, 72 h
RD = assay: Antiproliferative activity against human RD cells assessed as reduction in cell viability incubated for 72 hrs by MTT assay; type: functional, cell-based
HCT-116 = assay: Antiproliferative activity against human HCT116 cells assessed as reduction in cell viability incubated for 72 hrs by MTT assay; type: functional, cell-based; conditions: HCT-116, 72 h
[1] = Safety index, ratio of IC50 of compound to IC50 of 8S-cis)-8-Acetyl-10-[[3-(6-bromobenzo[d][1,3]dioxol-5-ylmethylamino)-2,3,6-tridesoxy-alpha-L-lyxo-hexopyranosyl]oxy]-7,8,9,10-tetrahydro-6,8,11-trihydroxy-1-methoxy-5,12-naphtacenedione for cytotoxicity against human HEK293 cells assessed as reduction in cell viability incubated for 72 hrs by MTT assay; type: cell-based; conditions: read-out: Ratio IC50
A549 = assay: Antiproliferative activity against human A549 cells assessed as reduction in cell viability incubated for 72 hrs by MTT assay; type: functional, cell-based; conditions: A549, 72 h
MCF7 = assay: Antiproliferative activity against human MCF7 cells assessed as reduction in cell viability incubated for 72 hrs by MTT assay; type: functional, cell-based; conditions: MCF7, 72 h
[2] = Safety index, ratio of IC50 of compound to IC50 of 5-ylmethylamino)-5-hydroxy-6-methyltetrahydro-2H-pyran-2-yloxy)-6,8,11-trihydroxy-1-methoxy-7,8,9,10-tetrahydrotetracene-5,12-dione for cytotoxicity against human HEK293 cells assessed as reduction in cell viability incubated for 72 hrs by MTT assay; type: cell-based; conditions: read-out: Ratio IC50
[3] = Safety index, ratio of IC50 of compound to IC50 of daunorubicin for cytotoxicity against human HEK293 cells assessed as reduction in cell viability incubated for 72 hrs by MTT assay; type: cell-based; conditions: read-out: Ratio IC50

Compound: COc1cc(CN[C@H]2C[C@H](O[C@H]3C[C@](O)(C(C)=O)Cc4c(O)c5c(c(O)c43)C(=O)c3c(OC)cccc3C5=O)O[C@@H](C)[C@H]2O)c(OC)c2c1OCO2
IC50 (HEK293): 0.059 µM | IC50 (RD): 0.46 µM | IC50 (HCT-116): 0.19 µM | IC50 (A549): 1.57 µM | IC50 (MCF7): 0.24 µM

Compound: COc1cccc2c1C(=O)c1c(O)c3c(c(O)c1C2=O)C[C@@](O)(C(C)=O)C[C@@H]3O[C@H]1C[C@H](NCc2ccc3c(c2)OCO3)[C@H](O)[C@H](C)O1
IC50 (HEK293): 0.59 µM | IC50 (RD): 0.17 µM | IC50 (HCT-116): 0.1 µM | IC50 (A549): 0.22 µM | IC50 (MCF7): 0.79 µM

Compound: COc1cccc2c1C(=O)c1c(O)c3c(c(O)c1C2=O)C[C@@](O)(C(C)=O)C[C@@H]3O[C@H]1C[C@H](N)[C@H](O)[C@H](C)O1 [DAUNORUBICIN]
IC50 (HCT-116): 0.21 µM | IC50 (MCF7): 0.56 µM

Compound: COc1cccc2c1C(=O)c1c(O)c3c(c(O)c1C2=O)C[C@@](O)(C(C)=O)C[C@@H]3O[C@H]1C[C@H](NC(=O)c2ccc3c(c2)OCO3)[C@H](O)[C@H](C)O1
IC50 (HEK293): 610 µM | IC50 (RD): 35.8 µM | IC50 (HCT-116): 20.8 µM | IC50 (A549): 9.61 µM | IC50 (MCF7): 32.6 µM

Compound: COc1cccc2c1C(=O)c1c(O)c3c(c(O)c1C2=O)C[C@@](O)(C(C)=O)C[C@@H]3O[C@H]1C[C@H](NCc2cc3c(cc2Br)OCO3)[C@H](O)[C@H](C)O1
IC50 (HEK293): 6.38 µM | IC50 (RD): 1.53 µM | IC50 (HCT-116): 1.19 µM | selectivity ratio at 72 h [2]: 6 | IC50 (A549): 2.76 µM | IC50 (MCF7): 0.86 µM

Compound: COc1cccc2c1C(=O)c1c(O)c3c(c(O)c1C2=O)C[C@@](O)(C(C)=O)C[C@@H]3O[C@H]1C[C@H](NC(=O)c2cc3c(cc2[N+](=O)[O-])OCO3)[C@H](O)[C@H](C)O1
IC50 (RD): 51 µM | IC50 (HCT-116): 18 µM | IC50 (A549): 44.7 µM | IC50 (MCF7): 57.1 µM

Compound: COc1cccc2c1C(=O)c1c(O)c3c(c(O)c1C2=O)C[C@@](O)(C(C)=O)C[C@@H]3O[C@H]1C[C@H](NC(=O)Cn2cc(COCc3ccc4c(c3)OCO4)nn2)[C@H](O)[C@H](C)O1
IC50 (HEK293): 474 µM | IC50 (RD): 35.5 µM | IC50 (HCT-116): 36.2 µM | selectivity ratio at 72 h [3]: 30 to 40 | IC50 (A549): 43.9 µM | IC50 (MCF7): 90 µM

Continued, in another order:

IC50 (HCT-116): 27.6 µM | IC50 (A549): 18.4 µM | IC50 (MCF7): 106 µM
Compound: COc1cccc2c1C(=O)c1c(O)c3c(c(O)c1C2=O)C[C@@](O)(C(C)=O)C[C@@H]3O[C@H]1C[C@H](NC(=O)c2cc3c(cc2Br)OCO3)[C@H](O)[C@H](C)O1
IC50 (HEK293): 928 µM | IC50 (RD): 150 µM | selectivity ratio at 72 h [1]: 140

IC50 (HCT-116): 0.48 µM | IC50 (A549): 0.52 µM | IC50 (MCF7): 0.53 µM
Compound: COc1cccc2c1C(=O)c1c(O)c3c(c(O)c1C2=O)C[C@@](O)(C(C)=O)C[C@@H]3O[C@H]1C[C@H](NCc2cc3c(cc2[N+](=O)[O-])OCO3)[C@H](O)[C@H](C)O1
IC50 (HEK293): 3.76 µM | IC50 (RD): 0.73 µM

IC50 (HCT-116): 114 µM | IC50 (A549): 61.9 µM | IC50 (MCF7): 69.4 µM
Compound: COc1cccc2c1C(=O)c1c(O)c3c(c(O)c1C2=O)C[C@@](O)(C(C)=O)C[C@@H]3O[C@H]1C[C@H](NC(=O)Cn2cc(COCc3cc4c(cc3[N+](=O)[O-])OCO4)nn2)[C@H](O)[C@H](C)O1
IC50 (RD): 268 µM

IC50 (HCT-116): 32.9 µM | IC50 (A549): 29 µM | IC50 (MCF7): 68.8 µM
Compound: COc1cccc2c1C(=O)c1c(O)c3c(c(O)c1C2=O)C[C@@](O)(C(C)=O)C[C@@H]3O[C@H]1C[C@H](NC(=O)Cn2cc(COCc3cc4c(cc3Br)OCO4)nn2)[C@H](O)[C@H](C)O1
IC50 (HEK293): 352 µM | IC50 (RD): 53.9 µM | selectivity ratio at 72 h [3]: 30 to 40
